For 13 compounds, IC50 results are on record in patent US20220389061A1, “IMMUNOMODULATORS” (priority 2019, published 2022).

Starred links: 1 amine or outer side, 2 acyl side, 3 side chain; linkers in the order of their positions; H or OH if unused. Positions of bridges follow the written chain, without caps; N, C: chain ends. Non-standard residues stand in square brackets, D forms with d. Residues, ends and D or L forms follow the SMILES beside them. Groups on a side chain read outwards from the residue. *: point of attachment. Trp(1-CH2CO2Me) = COC(=O)Cn1cc(C[C@H](N)C(=O)O)c2ccccc21; Trp(1-CH2COOH) = N[C@@H](Cc1cn(CC(=O)O)c2ccccc12)C(=O)O; NH(benzothiophen-5-yl) = c1cc2cc(N*)ccc2s1; X38 = N#Cc1c[nH]c2c(NC(=S)*)cccc12; X75 = S=C(Nc1ccc(C2CC2)c2ccccc12)*; Hyp = O=C(O)[C@@H]1C[C@@H](O)CN1; X35 = Cc1n[nH]c2c(NC(=S)*)cccc12; X70 = Cc1coc2c(F)cc(NC(=S)*)cc12; X60 = Cc1cc2cc(NC(=S)*)ccc2o1; NMeNle = CCCC[C@H](NC)C(=O)O; X16 = S=C(Nc1ccc2c(c1)OCO2)*; X4 = S=C(Nc1ccc2c(c1)OCCO2)*; X7 = S=C(Nc1ccc2cc[nH]c2c1)*; X52 = c1ccc2c(N*)c[nH]c2c1; X59 = S=C(Nc1ccc2nsnc2c1)*; NMeA = CN[C@@H](C)C(=O)O; X71 = c1cc2c(cc1N*)OCCO2; Dab = NCC[C@H](N)C(=O)O; X45 = c1ccc2sc(N*)cc2c1; Dap = NC[C@H](N)C(=O)O; CO = O=C([*:1])[*:2]

In this assay the target is T1, PD-1/PD-L1 (Homo sapiens, UniProt Q9NZQ7).
T1 construct: TVMV protease site linker (C); made in house; host or cells: HEK293T cells
T1 sequence (Q9NZQ7 18-239): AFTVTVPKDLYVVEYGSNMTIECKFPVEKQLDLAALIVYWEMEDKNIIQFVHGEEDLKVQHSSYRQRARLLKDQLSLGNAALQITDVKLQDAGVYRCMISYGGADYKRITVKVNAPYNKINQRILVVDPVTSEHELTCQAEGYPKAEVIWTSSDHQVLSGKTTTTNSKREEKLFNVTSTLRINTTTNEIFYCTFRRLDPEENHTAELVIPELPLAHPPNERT
Kind of assay: PD-1/PD-L1 Homogenous Time-Resolved Fluorescence (HTRF) binding assay. The note with it: PD-L1-His 10 nM pre-incubated with inhibitor, PD-1-Ig 20 nM; read-out: HTRF IC50. Put shortly: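 Compounds preincubated 15 min with PD-L1-His (10 nM final), then PD-1-Ig (20 nM final) added for 15 min in dPBS with 0.1% BSA, 0.05% Tween-20. Detection by Eu-cryptate anti-Ig (1 nM) and APC anti-His (20 nM) HTRF.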
For `CCCC[C@H]1C(=O)N(C)[C@@H](CCCC)C(=O)N[C@@H](CC(C)C)C(=O)N[C@H](C(=O)NCC(N)=O)CSCC(=O)N[C@@H](Cc2ccc(O)cc2)C(=O)N(C)[C@@H](C)C(=O)N[C@@H](CC(N)=O)C(=O)N2CCC[C@H]2C(=O)N[C@@H](CNC(=S)Nc2cc(F)c3occ(C)c3c2)C(=O)N[C@@H](CC(C)C)C(=O)N2C[C@H](O)C[C@H]2C(=O)N[C@@H](Cc2c[nH]c3ccccc23)C(=O)N[C@@H](CCN)C(=O)N[C@@H](Cc2cn(CC(=O)O)c3ccccc23)C(=O)N1C` [Example 3054] ({CH2CO}-Y[NMeA]NP[Dap](X70)L[Hyp]W[Dab][Trp(1-CH2COOH)][NMeNle][NMeNle]LCG-NH2; thioether N-14), the IC50 (commonly the concentration that inhibits the measured activity by half) turned out to be 1.3 nM.
For `CCCC[C@H]1C(=O)N(C)[C@@H](CCCC)C(=O)N[C@@H](CC(C)C)C(=O)N[C@H](C(=O)NCC(N)=O)CSCC(=O)N[C@@H](Cc2ccc(O)cc2)C(=O)N(C)[C@@H](C)C(=O)N[C@@H](CC(N)=O)C(=O)N2CCC[C@H]2C(=O)N[C@@H](CNC(=S)Nc2ccc3oc(C)cc3c2)C(=O)N[C@@H](CC(C)C)C(=O)N2C[C@H](O)C[C@H]2C(=O)N[C@@H](Cc2c[nH]c3ccccc23)C(=O)N[C@@H](CCN)C(=O)N[C@@H](Cc2cn(CC(=O)O)c3ccccc23)C(=O)N1C` [Example 3055] ({CH2CO}-Y[NMeA]NP[Dap](X60)L[Hyp]W[Dab][Trp(1-CH2COOH)][NMeNle][NMeNle]LCG-NH2; thioether N-14), the IC50 amounted to 2.8 nM.
To `CCCC[C@H]1C(=O)N(C)[C@@H](CCCC)C(=O)N[C@@H](CC(C)C)C(=O)N[C@H](C(=O)NCC(N)=O)CSCC(=O)N[C@@H](Cc2ccc(O)cc2)C(=O)N(C)[C@@H](C)C(=O)N[C@@H](CC(N)=O)C(=O)N2CCC[C@H]2C(=O)N[C@@H](CNC(=S)Nc2ccc3nsnc3c2)C(=O)N[C@@H](CC(C)C)C(=O)N2C[C@H](O)C[C@H]2C(=O)N[C@@H](Cc2c[nH]c3ccccc23)C(=O)N[C@@H](CCNC(=S)Nc2ccc3nsnc3c2)C(=O)N[C@@H](Cc2cn(CC(=O)OC)c3ccccc23)C(=O)N1C` [Example 3056] ({CH2CO}-Y[NMeA]NP[Dap](X59)L[Hyp]W[Dab](X59)[Trp(1-CH2CO2Me)][NMeNle][NMeNle]LCG-NH2; thioether N-14) belongs 5.6 nM; to `CCCC[C@H]1C(=O)N(C)[C@@H](CCCC)C(=O)N[C@@H](CC(C)C)C(=O)N[C@H](C(=O)NCC(N)=O)CSCC(=O)N[C@@H](Cc2ccc(O)cc2)C(=O)N(C)[C@@H](C)C(=O)N[C@@H](CC(N)=O)C(=O)N2CCC[C@H]2C(=O)N[C@@H](CNC(=O)Nc2ccc3sccc3c2)C(=O)N[C@@H](CC(C)C)C(=O)N2C[C@H](O)C[C@H]2C(=O)N[C@@H](Cc2c[nH]c3ccccc23)C(=O)N[C@@H](CCNC(=O)Nc2ccc3sccc3c2)C(=O)N[C@@H](Cc2cn(CC(=O)OC)c3ccccc23)C(=O)N1C` [Example 3057] ({CH2CO}-Y[NMeA]NP[Dap]([CO-NH(benzothiophen-5-yl)])L[Hyp]W[Dab]([CO-NH(benzothiophen-5-yl)])[Trp(1-CH2CO2Me)][NMeNle][NMeNle]LCG-NH2; thioether N-14), 34 nM.
Consider `CCCC[C@H]1C(=O)N(C)[C@@H](CCCC)C(=O)N[C@@H](CC(C)C)C(=O)N[C@H](C(=O)NCC(N)=O)CSCC(=O)N[C@@H](Cc2ccc(O)cc2)C(=O)N(C)[C@@H](C)C(=O)N[C@@H](CC(N)=O)C(=O)N2CCC[C@H]2C(=O)N[C@@H](CNC(=S)Nc2ccc(C3CC3)c3ccccc23)C(=O)N[C@@H](CC(C)C)C(=O)N2C[C@H](O)C[C@H]2C(=O)N[C@@H](Cc2c[nH]c3ccccc23)C(=O)N[C@@H](CCNC(=S)Nc2ccc(C3CC3)c3ccccc23)C(=O)N[C@@H](Cc2cn(CC(=O)O)c3ccccc23)C(=O)N1C` [Example 3058] ({CH2CO}-Y[NMeA]NP[Dap](X75)L[Hyp]W[Dab](X75)[Trp(1-CH2COOH)][NMeNle][NMeNle]LCG-NH2; thioether N-14), for which the IC50 was 13 nM.
The value for `CCCC[C@H]1C(=O)N(C)[C@@H](CCCC)C(=O)N[C@@H](CC(C)C)C(=O)N[C@H](C(=O)NCC(N)=O)CSCC(=O)N[C@@H](Cc2ccc(O)cc2)C(=O)N(C)[C@@H](C)C(=O)N[C@@H](CC(N)=O)C(=O)N2CCC[C@H]2C(=O)N[C@@H](CNC(=O)Nc2ccc3c(c2)OCCO3)C(=O)N[C@@H](CC(C)C)C(=O)N2C[C@H](O)C[C@H]2C(=O)N[C@@H](Cc2c[nH]c3ccccc23)C(=O)N[C@@H](CCNC(=O)Nc2ccc3c(c2)OCCO3)C(=O)N[C@@H](Cc2cn(CC(=O)O)c3ccccc23)C(=O)N1C` [Example 3059] ({CH2CO}-Y[NMeA]NP[Dap]([CO-X71])L[Hyp]W[Dab]([CO-X71])[Trp(1-CH2COOH)][NMeNle][NMeNle]LCG-NH2; thioether N-14) was 3 nM.
Regarding `CCCC[C@H]1C(=O)N(C)[C@@H](CCCC)C(=O)N[C@@H](CC(C)C)C(=O)N[C@H](C(=O)NCC(N)=O)CSCC(=O)N[C@@H](Cc2ccc(O)cc2)C(=O)N(C)[C@@H](C)C(=O)N[C@@H](CC(N)=O)C(=O)N2CCC[C@H]2C(=O)N[C@@H](CNC(=O)Nc2c[nH]c3ccccc23)C(=O)N[C@@H](CC(C)C)C(=O)N2C[C@H](O)C[C@H]2C(=O)N[C@@H](Cc2c[nH]c3ccccc23)C(=O)N[C@@H](CCNC(=O)Nc2c[nH]c3ccccc23)C(=O)N[C@@H](Cc2cn(CC(=O)O)c3ccccc23)C(=O)N1C` [Example 3060] ({CH2CO}-Y[NMeA]NP[Dap]([CO-X52])L[Hyp]W[Dab]([CO-X52])[Trp(1-CH2COOH)][NMeNle][NMeNle]LCG-NH2; thioether N-14), the IC50 was found to be 2.7 nM.
The value for `CCCC[C@H]1C(=O)N(C)[C@@H](CCCC)C(=O)N[C@@H](CC(C)C)C(=O)N[C@H](C(=O)NCC(N)=O)CSCC(=O)N[C@@H](Cc2ccc(O)cc2)C(=O)N(C)[C@@H](C)C(=O)N[C@@H](CC(N)=O)C(=O)N2CCC[C@H]2C(=O)N[C@@H](CN)C(=O)N[C@@H](CC(C)C)C(=O)N2C[C@H](O)C[C@H]2C(=O)N[C@@H](Cc2c[nH]c3ccccc23)C(=O)N[C@@H](CCNC(=O)Nc2cc3ccccc3s2)C(=O)N[C@@H](Cc2cn(CC(=O)O)c3ccccc23)C(=O)N1C` [Example 3061] ({CH2CO}-Y[NMeA]NP[Dap]L[Hyp]W[Dab]([CO-X45])[Trp(1-CH2COOH)][NMeNle][NMeNle]LCG-NH2; thioether N-14) was 5.6 nM; that for `CCCC[C@H]1C(=O)N(C)[C@@H](CCCC)C(=O)N[C@@H](CC(C)C)C(=O)N[C@H](C(=O)NCC(N)=O)CSCC(=O)N[C@@H](Cc2ccc(O)cc2)C(=O)N(C)[C@@H](C)C(=O)N[C@@H](CC(N)=O)C(=O)N2CCC[C@H]2C(=O)N[C@@H](CNC(=S)Nc2ccc3c(c2)OCO3)C(=O)N[C@@H](CC(C)C)C(=O)N2C[C@H](O)C[C@H]2C(=O)N[C@@H](Cc2c[nH]c3ccccc23)C(=O)N[C@@H](CCN)C(=O)N[C@@H](Cc2cn(CC(=O)O)c3ccccc23)C(=O)N1C` [Example 3065] ({CH2CO}-Y[NMeA]NP[Dap](X16)L[Hyp]W[Dab][Trp(1-CH2COOH)][NMeNle][NMeNle]LCG-NH2; thioether N-14) was 0.98 nM.
On to `CCCC[C@H]1C(=O)N(C)[C@@H](CCCC)C(=O)N[C@@H](CC(C)C)C(=O)N[C@H](C(=O)NCC(N)=O)CSCC(=O)N[C@@H](Cc2ccc(O)cc2)C(=O)N(C)[C@@H](C)C(=O)N[C@@H](CC(N)=O)C(=O)N2CCC[C@H]2C(=O)N[C@@H](CNC(=S)Nc2cccc3c(C)n[nH]c23)C(=O)N[C@@H](CC(C)C)C(=O)N2C[C@H](O)C[C@H]2C(=O)N[C@@H](Cc2c[nH]c3ccccc23)C(=O)N[C@@H](CCN)C(=O)N[C@@H](Cc2cn(CC(=O)O)c3ccccc23)C(=O)N1C` [Example 3066] ({CH2CO}-Y[NMeA]NP[Dap](X35)L[Hyp]W[Dab][Trp(1-CH2COOH)][NMeNle][NMeNle]LCG-NH2; thioether N-14), for which the half-inhibitory concentration (IC50) was 4.6 nM.
The value for `CCCC[C@H]1C(=O)N(C)[C@@H](CCCC)C(=O)N[C@@H](CC(C)C)C(=O)N[C@H](C(=O)NCC(N)=O)CSCC(=O)N[C@@H](Cc2ccc(O)cc2)C(=O)N(C)[C@@H](C)C(=O)N[C@@H](CC(N)=O)C(=O)N2CCC[C@H]2C(=O)N[C@@H](CNC(=S)Nc2cccc3c(C#N)c[nH]c23)C(=O)N[C@@H](CC(C)C)C(=O)N2C[C@H](O)C[C@H]2C(=O)N[C@@H](Cc2c[nH]c3ccccc23)C(=O)N[C@@H](CCN)C(=O)N[C@@H](Cc2cn(CC(=O)O)c3ccccc23)C(=O)N1C` [Example 3067] ({CH2CO}-Y[NMeA]NP[Dap](X38)L[Hyp]W[Dab][Trp(1-CH2COOH)][NMeNle][NMeNle]LCG-NH2; thioether N-14) was 5.2 nM.
The value for `CCCC[C@H]1C(=O)N(C)[C@@H](CCCC)C(=O)N[C@@H](CC(C)C)C(=O)N[C@H](C(=O)NCC(N)=O)CSCC(=O)N[C@@H](Cc2ccc(O)cc2)C(=O)N(C)[C@@H](C)C(=O)N[C@@H](CC(N)=O)C(=O)N2CCC[C@H]2C(=O)N[C@@H](CNC(=S)Nc2ccc3cc[nH]c3c2)C(=O)N[C@@H](CC(C)C)C(=O)N2C[C@H](O)C[C@H]2C(=O)N[C@@H](Cc2c[nH]c3ccccc23)C(=O)N[C@@H](CCNC(=S)Nc2ccc3cc[nH]c3c2)C(=O)N[C@@H](Cc2cn(CC(=O)O)c3ccccc23)C(=O)N1C` [Example 3068] ({CH2CO}-Y[NMeA]NP[Dap](X7)L[Hyp]W[Dab](X7)[Trp(1-CH2COOH)][NMeNle][NMeNle]LCG-NH2; thioether N-14) was 2 nM; that for `CCCC[C@H]1C(=O)N(C)[C@@H](CCCC)C(=O)N[C@@H](CC(C)C)C(=O)N[C@H](C(=O)NCC(N)=O)CSCC(=O)N[C@@H](Cc2ccc(O)cc2)C(=O)N(C)[C@@H](C)C(=O)N[C@@H](CC(N)=O)C(=O)N2CCC[C@H]2C(=O)N[C@@H](CNC(=S)Nc2ccc3c(c2)OCCO3)C(=O)N[C@@H](CC(C)C)C(=O)N2C[C@H](O)C[C@H]2C(=O)N[C@@H](Cc2c[nH]c3ccccc23)C(=O)N[C@@H](CCNC(=S)Nc2ccc3c(c2)OCCO3)C(=O)N[C@@H](Cc2cn(CC(=O)O)c3ccccc23)C(=O)N1C` [Example 3069] ({CH2CO}-Y[NMeA]NP[Dap](X4)L[Hyp]W[Dab](X4)[Trp(1-CH2COOH)][NMeNle][NMeNle]LCG-NH2; thioether N-14) was 3.1 nM.
